Test results from patent US4391816A, “N-(Naphthalenylthioxomethyl)aminoacid derivatives” (Ayerst, McKenna & Harrison Inc., priority 1981, dated 1983).

Key:
[1] = system: aldose reductase; conditions: reported in the literature; cited from earlier work
[2] = biological target: T1, aldose reductase (Bos taurus, UniProt P16116); assay: in vitro aldose reductase inhibition (enzyme from bovine lens, modified Hayman and Kinoshita procedure); type: biochemical; conditions: for inhibition at 10 µM: 10^-5 molar, read-out: % Inhibition at Different Molar Concentrations (in vitro), 10^-5; for inhibition at 1 µM: 10^-6 molar, read-out: % Inhibition at Different Molar Concentrations (in vitro), 10^-6; for inhibition at 0.1 µM: 10^-7 molar, read-out: % Inhibition at Different Molar Concentrations (in vitro), 10^-7
T1 construct: preparation of the enzyme from bovine lens; from tissue; host or cells: bovine lens
Method: In the present case the procedure of Hayman and Kinoshita is modified in that the final chromatography step is omitted in the preparation of the enzyme from bovine lens.
The following results were obtained when the compounds of this invention were evaluated in the above in vitro test.

Compound | inhibition at 10 µM [2] | inhibition at 1 µM [2] | inhibition at 0.1 µM [2] | inhibition of aldose reductase (in words) [1]
O=C(O)CN1C(=O)c2cccc3cccc(c23)C1=O [1,3-Dioxo-1H-benz[de]isoquinoline-2(3H)-acetic acid] |  |  |  | effective inhibitor of aldose reductase
COc1c(Cl)cc(C(=S)N(C)CC(=O)O)c2cccc(S(=O)(=O)N(C)C)c12 [N-[[3-chloro-4-methoxy-5-(dimethylaminosulfonyl)-1-naphthalenyl]thioxomethyl]-N-methylglycine] | 91% | 67% | 19% | 
COc1ccc(C(=S)N(C)CC(=O)O)c2cccc(S(=O)(=O)N(C)C)c12 [N-[[4-methoxy-5-(dimethylaminosulfonyl)-1-naphthalenyl]thioxomethyl]-N-methylglycine] | 80% | 35% | 6% | 
O=C(O)[C@@H]1CCCN1C(=S)c1cccc2c(Br)cccc12 [R^1 R^2=CH2 CH2 CH2, R^3=5-Br, n=O, N-[(5-bromo-1-naphthalenyl)thioxomethyl]-L-proline] | 56% | 26% |  | 
O=C(O)CN(C(=S)c1cccc2c(Br)cccc12)c1ccc(Cl)cc1 [R^1=4-Cl--C6 H4, R^2=H, R^3=5-Br, n=O, N-[(5-bromo-1-naphthalenyl)thioxomethyl]-N-(4-chlorophenyl)glycine] | 86% | 80% | 39% | 
O=C(O)CN(CC(=O)O)C(=S)c1cccc2c(Br)cccc12 [R^1=CH2 COOH, R^2=H, R^3=5-Br, n=O, N-[(5-bromo-1-naphthalenyl)thioxomethyl]-N-(carboxymethyl)glycine] | 46% | 7% |  | 
CC(C(=O)O)N(C)C(=S)c1cccc2c(Br)cccc12 (centres unmarked) [R^1=CH3, R^2=CH3, R^3=5-Br, n=O *] | 18% |  |  | 
O=C1NC(=O)[C@@]2(CCOc3ccc(F)cc32)N1 [sorbinil, (S)-6-Fluoro-2,3-dihydrospiro(4H-1-benzopyran-4,4'-imidazolidine)-2',5'-dione] |  |  |  | aldose reductase inhibiting properties

Continued, in another order:

inhibition at 10 µM [2] | inhibition at 1 µM [2] | inhibition at 0.1 µM [2] | Compound | inhibition of aldose reductase (in words) [1]
90% | 74% | 28% | CN(CC(=O)O)C(=S)c1cc(Br)cc2ccccc12 [R^1=CH3, R^2=H, R^3=3-Br, n=O, N-[(3-Bromo-1-naphthalenyl)thioxomethyl]-N-methylglycine] | 
37% |  |  | CN(CCCC(=O)O)C(=S)c1cccc2c(Br)cccc12 [R^1=CH3, R^2=H, R^3=5-Br, n=2, N-[(5-bromo-1-naphthalenyl)thioxomethyl]-N-methyl-4-aminobutanoic acid] | 
91% | 75% | 18% | CN(CC(=O)O)C(=S)c1cccc2cc(Br)ccc12 [R^1=CH3, R^2=H, R^3=6-Br, n=O, N-[(6-bromo-1-naphthalenyl)thioxomethyl)-N-methylglycine] | 
86% | 58% | 15% | CN(CC(=O)O)C(=S)c1cccc2ccc(Br)cc12 [R^1=CH3, R^2=H, R^3=7-Br, n=O, N-[(7-bromo-1-naphthalenyl)thioxomethyl]-N-methylglycine] | 
